From US20260240976A1, “T[…] VACCINES BASED ON VALIDATED TARGET EPITOPES” (Deutsches Krebsforschungszentrum Stiftung des öffentlichen …, priority 2023, published 2026)

Experiments:
[1] = test system: peptide-specific T cell cultures; test: T cell phenotyping and intracellular cytokine staining (IFN-gamma, TNF-alpha); type: cell-based, human; parameters: key: +: cytokine: Immunogenicity of the peptide shown by intracellular cytokine staining (IFN-gamma, TNF-alpha); +*: *highlights data from published resources.; *highlights data from published resources
Protocol: To characterize and quantify the responsive cells upon peptide stimulation, the peptide-specific T cell cultures with positive ELISpot results were further analyzed with T cell phenotyping and intracellular cytokine staining (ICS) assessed by flow cytometry.
The cells of the respective continued short-term T cell culture as well as the DMSO-stimulated and an unresponsive T cell line were harvested into 2 mL reaction tubes and centrifuged at 400×g for 10 min. The supernatant was discarded and the pellet of the unresponsive T cell line was resuspended in 100 μL ELISpot medium and used as unstimulated and unstained control. The pellets of the responsive and the DMSO-stimulated T cell lines were resuspended in 200 μL ELISpot medium and split equally into two wells of a V-bottom 96-well plate. One well of the responsive T cell lines was re-stimulated with 10 μg/mL of its specific peptide while the other well was mock stimulated with 0.1% (v/v) DMSO. As positive control, one well of the DMSO-stimulated T cell line was activated by treatment with 20 ng/ml Phorbol 12-myristate 13-acetate and 1 μM lonomycin. Then, 1:10 diluted GolgiStop (containing monensin) and 1:15 diluted GolgiPlug (containing brefeldin A) were added to all wells to inhibit intracellular transport processes. Monensin inhibits the trans-Golgi transport, while brefeldin A inhibits transport between the ER and the Golgi (Chardin and McCormick, 1999; Mollenhauer et al., 1990). The stimulated cells were incubated for 5 h at standard culture conditions.
After incubation, the cells were resuspended, centrifuged at 400×g for 5 min and the supernatant was discarded. Then, the cells were resuspended in 50 μL cold staining buffer (unstained) or 50 μL cold staining buffer containing the phenotyping antibodies against CD3, CD4, CD8 and the LIVE/DEAD™ Fixable Near-IR Dead Cell Stain (unstimulated and stimulated) and incubated at 4° C. for 30 min. After the surface staining, the cells were washed twice with 200 μL staining buffer and centrifugation at 1400 rpm, followed by fixation with 1% paraformaldehyde (PFA) solution for 15 min at 4° C. All following centrifugation steps were carried out at 1400 rpm for 5 min. After fixation, the cells were again washed twice with 200 μL cold staining buffer and were then resuspended in 100 μL 1× perm/wash buffer diluted in PBS (provided is 10×) for 15 min at 4° C. for cell membrane permeabilization. Subsequently, the plate was centrifuged and the supernatant was discarded. The cells were resuspended in 50 μL perm/wash buffer diluted in PBS (unstained) or 50 μL perm/wash buffer containing the intracellular cytokine antibodies against IFNγ, TNFα and granzyme B (unstimulated and stimulated) for 30 min at 4° C. After intracellular cytokine staining, the cells were washed twice with 200 μL 1× perm/wash buffer. Then 100 μL fix/perm solution (provided in the BD Cytofix/Cytoperm kit) were added per well. After 20 min of incubation at 4° C., the cells of each well were washed twice with 200 μL 1× perm/wash buffer before being resuspended in 100 μL staining buffer and stored at 4° C. overnight.
OneComp eBeads™ (eBeads) and ArC™ Amine Reactive Compensation beads (ArC beads) were stained as compensation controls. For each antibody, 50 μL of the eBeads suspension were stained with the same dilution as used for staining the cells. The ArC beads were stained with 1 μL LIVE/DEAD™ Fixable Near-IR Dead Cell Stain stock solution in 50 μL staining buffer. The beads were incubated at 4° C. for 30 min and were then washed two times with 1 mL staining buffer and centrifugation at 400×g. Finally, the stained beads were resuspended in 400 μL staining buffer, one drop of ArC™ negative beads was added to the labelled ArC beads, and all beads were stored at 4° C. overnight.
On the next day, the samples and the single stained compensation controls were acquired at a BD FACS Canto™ II analyzer using the BD FACS Diva Software Version 6. […]

[2] = test system: short-term antigen-specific T cell lines generated from PBMCs; test: Interferon-γ ELISpot assay on short-term antigen-specific T cell lines; type: cell-based, human

Substance | cytokine: Immunogenicity of the peptide shown by intracellular cytokine staining (IFN-gamma, TNF-alpha) ([1]; HLA restriction A01) | ELISpot: Immungenicity of the peptide shown by IFN-gamma ELISPOT analysis ([2]; HLA restriction A01) | cytokine: Immunogenicity of the peptide shown by intracellular cytokine staining (IFN-gamma, TNF-alpha) ([1]; HLA restriction A11) | ELISpot: Immungenicity of the peptide shown by IFN-gamma ELISPOT analysis ([2]; HLA restriction A11) | further results
3 (TIHDIILQCVY; Human papillomavirus 16) [compound 3] | + | + | – | – | –
4 (YGVCDKCLKFY; Human papillomavirus 16) [compound 4] | + | + | – | – | –
5 (EYRYYCYSLY; Human papillomavirus 16) [compound 5] | + | + | – | – | –
6 (DLQPETTDLY; Human papillomavirus 16) [compound 6] | + | + | – | – | –
7 (TTDLYCYEQ; Human papillomavirus 16) [compound 7] | + | + | – | – | –
24 (DLLMGTLGIVC; Human papillomavirus 16) [compound 24] | – | – | – | – | cytokine: Immunogenicity of the peptide shown by intracellular cytokine staining (IFN-gamma, TNF-alpha) ([1]; HLA restriction A02): +; ELISpot: Immungenicity of the peptide shown by IFN-gamma ELISPOT analysis ([2]; HLA restriction A02): +
43 (LLMGTLGIVC; Human papillomavirus 16) [compound 43] | – | – | – | – | cytokine: Immunogenicity of the peptide shown by intracellular cytokine staining (IFN-gamma, TNF-alpha) ([1]; HLA restriction A02): +; ELISpot: Immungenicity of the peptide shown by IFN-gamma ELISPOT analysis ([2]; HLA restriction A02): +
59 (FAFRDLCIVYR; Human papillomavirus 16) [compound 59] | – | – | + | + | –
60 (AFRDLCIVYR; Human papillomavirus 16) [compound 60] | – | – | + | + | –
61 (IVYRDGNPY; Human papillomavirus 16) [compound 61] | – | – | + | + | cytokine: Immunogenicity of the peptide shown by intracellular cytokine staining (IFN-gamma, TNF-alpha) ([1]; HLA restriction A03): +; ELISpot: Immungenicity of the peptide shown by IFN-gamma ELISPOT analysis ([2]; HLA restriction A03): +
62 (NPYAVCDKCLK; Human papillomavirus 16) [compound 62] | – | – | + | + | –
63 (AVCDKCLKFY; Human papillomavirus 16) [compound 63] | – | – | + | – | cytokine: Immunogenicity of the peptide shown by intracellular cytokine staining (IFN-gamma, TNF-alpha) ([1]; HLA restriction A03): +; cytokine: Immunogenicity of the peptide shown by intracellular cytokine staining (IFN-gamma, TNF-alpha) ([1]; HLA restriction B15): +; ELISpot: Immungenicity of the peptide shown by IFN-gamma ELISPOT analysis ([2]; HLA restriction A03): +; ELISpot: Immungenicity of the peptide shown by IFN-gamma ELISPOT analysis ([2]; HLA restriction B15): +
64 (AVCDKCLKFYS; Human papillomavirus 16) [compound 64] | – | – | + | + | –
65 (VCDKCLKFYSK; Human papillomavirus 16) [compound 65] | – | – | + | + | –
66 (GIVCPICSQK; Human papillomavirus 16) [compound 66] | – | – | – | – | cytokine: Immunogenicity of the peptide shown by intracellular cytokine staining (IFN-gamma, TNF-alpha) ([1]; HLA restriction A03): +; ELISpot: Immungenicity of the peptide shown by IFN-gamma ELISPOT analysis ([2]; HLA restriction A03): +
74 (DLLIRCINCQK; Human papillomavirus 16) [compound 74] | – | – | + | + | –
